Test results reported in article PMC3447335, “Evaluation of Pseudopteroxazole and Pseudopterosin Derivatives against Mycobacterium tuberculosis and Other Pathogens” (Marine Drugs, 2012).
In brackets after ≈: the same amount, converted by molar mass. Like-named read-outs stand apart in the source and are kept apart here.

Legend:
Vero cells = assay: cells; details: Chlorocebus sabaeus; for cytotoxicity at 128 µg/mL: read-out: Vero cell (% inh); for IC50: read-out: Vero cell IC50
[1] = test system: M. smegmatis (ATCC 12051); assay: Microbroth dilution antibiotic susceptibility assay; assay type: cell-based; details: Mycolicibacterium smegmatis
MRSA = assay: as above; assay type: cell-based; details: Staphylococcus aureus, read-out: IC50 MRSA
[2] = test system: M. diernhoferi (ATCC 19340); assay: as above; assay type: cell-based; details: Mycolicibacterium diernhoferi
VRE = assay: as above; assay type: cell-based, Enterococcus faecium; details: Enterococcus, read-out: IC50 VRE
[3] = test system: M. tuberculosis H37Rv (ATCC 27294); assay: microbe, parasite or virus in culture; assay type: cell-based, Mycobacterium tuberculosis; details: for inhibition at 64 µg/mL / MIC: Mycobacterium tuberculosis; for inhibition at 64 µg/mL: % inhibition at 64 μg/mL, read-out: LORA % inh; for MIC: read-out: LORA MIC
[4] = test system: M. tuberculosis H37Rv (ATCC 27294); assay: Microplate Alamar blue assay (MABA); assay type: cell-based, Mycobacterium tuberculosis; details: for SI (Selectivity Index): (Vero Cell IC50)/(M. tuberculosis MIC); for MIC: Mycobacterium tuberculosis
[5] = ATCC12051, microbroth dilution, read-out: MIC M. smegmatis
[6] = ATCC19340, microbroth dilution, read-out: MIC M. diernhoferi
[7] = non-replicating persistent model
[8] = M. tuberculosis H37Rv (ATCC 27294), replicating, read-out: MABA MIC
[9] = wild-type M. tuberculosis H37Rv, Table 2 experiment, read-out: MABA MIC H37Rv

| SMILES | IC50 (Vero cells) | MIC [1, 5] | MIC [2, 6] | inhibition at 64 µg/mL [3] | SI (Selectivity Index) [4] | MIC [4, 8] | also measured |
| --- | --- | --- | --- | --- | --- | --- | --- |
| CC(C)=CC1CC(C)C2CCC(C)c3c2c1c(C)c1nc(Cc2cnc[nH]2)oc31 (stereo not shown) [7a/7b] | > 128 µg/mL | 4 µg/mL (≈ 10.3 µM) | 2 µg/mL (≈ 5.13 µM) | 92.5% | >9.7 | 13 µg/mL | cytotoxicity at 128 µg/mL (Vero cells): 4%; IC50 (MRSA): 3 µg/mL (≈ 7.7 µM); IC50 (VRE): 7.5 µg/mL (≈ 19.3 µM); MIC [3, 7]: 12 µg/mL; MIC ([3]; value given in μM): 31 µM; MIC ([4]; MABA, value given in μM, read-out: MIC against M. tuberculosis H37Rv): 34 µM |
| CC(C)=C[C@@H]1C[C@H](C)[C@H]2CC[C@H](C)c3c(O)c(O)c(C)c1c32 [Compound 4, pseudopterosin G–J aglycone] | 50 µg/mL (≈ 166 µM) | 8 µg/mL (≈ 26.6 µM) | 8 µg/mL (≈ 26.6 µM) | 53.1% | – | > 128 µg/mL | IC50 (MRSA; microbroth dilution): 88 µg/mL (≈ 293 µM); IC50 (VRE; microbroth dilution): > 128 µg/mL |
| CC(C)=C[C@@H]1C[C@H](C)[C@H]2CC[C@H](C)c3c2c1c(C)c1nccnc31 [Compound 5, Pseudopteroquinoxaline] | 22 µg/mL (≈ 68.6 µM) | 16 µg/mL (≈ 49.9 µM) | 64 µg/mL (≈ 200 µM) | 99.9% | 0.8 | 29 µg/mL | IC50 (MRSA; microbroth dilution): > 128 µg/mL; IC50 (VRE; microbroth dilution): > 128 µg/mL |
| COC(C)(C)C[C@@H]1C[C@H](C)[C@H]2CC[C@H](C)c3c2c1c(C)c1nccnc31 [Compound 6, 14,15-Dihydro-15-methoxy-pseudopteroquinoxaline] | 15 µg/mL (≈ 42.6 µM) | – | – | 99.9% | 0.2 | 84 µg/mL | – |
| CCCCCOc1c(C)c2c3c(c1O)[C@@H](C)CC[C@@H]3[C@@H](C)C[C@H]2C=C(C)C [Compound 8, 10-Pentoxy-pseudopterosin G–J Aglycone] | 49 µg/mL (≈ 132 µM) | > 128 µg/mL | > 128 µg/mL | 35.1% | – | > 128 µg/mL | IC50 (MRSA; microbroth dilution): 47 µg/mL (≈ 127 µM); IC50 (VRE; microbroth dilution): 22 µg/mL (≈ 59.4 µM) |
| COc1c(C)c2c3c(c1O)[C@@H](C)CC[C@@H]3[C@@H](C)C[C@H]2C=C(C)C [Compound 9] | > 128 µg/mL | 4 µg/mL (≈ 12.7 µM) | 4 µg/mL (≈ 12.7 µM) | 99.7% | >4.3 | 30 µg/mL | cytotoxicity at 128 µg/mL (Vero cells): 26%; IC50 (MRSA; microbroth dilution): 9 µg/mL (≈ 28.6 µM); IC50 (VRE; microbroth dilution): 12 µg/mL (≈ 38.2 µM); MIC [3, 7]: 52 µg/mL |
| COc1c(C)c2c3c(c1OC)[C@@H](C)CC[C@@H]3[C@@H](C)C[C@H]2C=C(C)C [Compound 10, 9,10-Dimethoxy-pseudopterosin G–J Aglycone] | 51 µg/mL (≈ 155 µM) | > 64 µg/mL | > 64 µg/mL | 77.5% | – | > 128 µg/mL | IC50 (MRSA; microbroth dilution): > 128 µg/mL; IC50 (VRE; microbroth dilution): 25 µg/mL (≈ 76.1 µM) |
| COc1c(C)c2c3c(c1OS(=O)(=O)C(F)(F)F)[C@@H](C)CC[C@@H]3[C@@H](C)C[C@H]2C=C(C)C [Compound 11, 9-Trifluoromethylsulfonyloxy-10-methoxy-pseudopterosin G–J Aglycone] | 51 µg/mL (≈ 114 µM) | > 64 µg/mL | > 64 µg/mL | 37.5% | – | > 128 µg/mL | IC50 (MRSA; microbroth dilution): > 128 µg/mL; IC50 (VRE; microbroth dilution): > 128 µg/mL |
| COc1c(C)c2c3c(c1OC(=O)N(C)C)[C@@H](C)CC[C@@H]3[C@@H](C)C[C@H]2C=C(C)C [Compound 12, 9-Dimethylcarbamoyloxy-10-methoxy-pseudopterosin G–J Aglycone] | > 128 µg/mL | – | – | 80% | – | > 128 µg/mL | cytotoxicity at 128 µg/mL (Vero cells): 0%; MIC ([1]; ATCC12051, read-out: MIC M. smegmatis): 64 µg/mL (≈ 166 µM); IC50 (MRSA): > 128 µg/mL; MIC ([2]; ATCC19340, read-out: MIC M. diernhoferi): > 64 µg/mL; IC50 (VRE): 70 µg/mL (≈ 182 µM) |
| COc1ccc(CC=C(C)C)c(OC)c1O [Compound 14, 2,6-Dimethoxy-3-(3-methylbut-2-enyl)phenol] | 44 µg/mL (≈ 198 µM) | 128 µg/mL (≈ 576 µM) | 64 µg/mL (≈ 288 µM) | -4.7% | – | > 128 µg/mL | IC50 (MRSA): > 128 µg/mL; IC50 (VRE): > 128 µg/mL |
| CC(C)=C[C@@H]1C[C@H](C)[C@H]2CC[C@H](C)c3c2c1c(C)c1ocnc31 [Compound 22, isopseudopteroxazole] | 52 µg/mL (≈ 168 µM) | – | – | 100% | 3.6 | 14 µg/mL | MIC [3, 7]: 44 µg/mL |
| COc1ccccc1-c1nc2c(C)c3c4c(c2o1)C(C)CCC4C(C)CC3C=C(C)C (stereo not shown) [Compound 23] | 34 µg/mL (≈ 81.8 µM) | – | – | 83.3% | – | > 82 µg/mL | – |
| CC(C)=CC1CC(C)C2CCC(C)c3c2c1c(C)c1nc(-c2ccc(F)cc2)oc31 (stereo not shown) [Compound 24] | > 31 µg/mL | – | – | -19% | – | > 31 µg/mL | cytotoxicity at 128 µg/mL (Vero cells): 0% |
| CC(C)=CC1CC(C)C2CCC(C)c3c2c1c(C)c1nc(C)oc31 (stereo not shown) [Compound 25] | 12 µg/mL (≈ 37.1 µM) | – | – | 99% | 0.8 | 15 µg/mL | – |
| CCC(C)c1nc2c(C)c3c4c(c2o1)C(C)CCC4C(C)CC3C=C(C)C (stereo not shown) [Compound 26] | 73 µg/mL (≈ 200 µM) | – | – | 59.1% | – | > 103 µg/mL | – |
| CSCCc1nc2c(C)c3c4c(c2o1)C(C)CCC4C(C)CC3C=C(C)C (stereo not shown) [Compound 27] | > 128 µg/mL | – | – | 90% | >1.2 | 107 µg/mL | cytotoxicity at 128 µg/mL (Vero cells): 0% |
| CC(C)=CC1CC(C)C2CCC(C)c3c2c1c(C)c1nc(Cc2ccccc2)oc31 (stereo not shown) [Compound 28] | 82 µg/mL (≈ 205 µM) | – | – | 13.7% | – | > 128 µg/mL | – |
| CC(C)=CC1CC(C)C2CCC(C)c3c2c1c(C)c1nc(C(C)O)oc31 (stereo not shown) [Compound 29] | 24 µg/mL (≈ 67.9 µM) | – | – | 99.8% | 0.5 | 53 µg/mL | – |
| COC(=O)CCc1nc2c(C)c3c4c(c2o1)C(C)CCC4C(C)CC3C=C(C)C (stereo not shown) [Compound 30] | 31 µg/mL (≈ 78.4 µM) | – | – | 99.1% | – | > 128 µg/mL | MIC [3, 7]: 62 µg/mL |
| CC(C)=CC1CC(C)C2CCC(C)c3c2c1c(C)c1nc(CCC(=O)O)oc31 (stereo not shown) [Compound 31] | 102 µg/mL (≈ 267 µM) | – | – | 99.1% | 1.1 | 95 µg/mL | – |
| CC(C)=CC1CC(C)C2CCC(C)c3c2c1c(C)c1nc(CCC(N)=O)oc31 (stereo not shown) [Compound 32] | 54 µg/mL (≈ 142 µM) | – | – | 99% | 1.9 | 29 µg/mL | – |
| CC(C)=CC1CC(C)C2CCC(C)c3c2c1c(C)c1nc(CC(N)=O)oc31 (stereo not shown) [Compound 33] | 45 µg/mL (≈ 123 µM) | – | – | 97.1% | 0.8 | 59 µg/mL | – |
| NNC(=O)c1ccncc1 [Isoniazid] | – | – | – | – | – | 0.03 µg/mL | LORA (% inh) in MIC column ([3]; % inhibition in parentheses, where the MIC exceeds the stated concentration): 65%; MIC [3, 7]: > 128 µg/mL; MIC [4, 9]: 0.03 µg/mL |
| O=[N+]([O-])c1cn2c(n1)OC[C@@H](OCc1ccc(OC(F)(F)F)cc1)C2 [PA824, reference compound] | – | – | – | – | – | 0.15 µg/mL | – |
| CO[C@H]1/C=C/O[C@@]2(C)Oc3c(C)c(O)c4c(O)c(c(/C=N/N5CCN(C)CC5)c(O)c4c3C2=O)NC(=O)/C(C)=C\C=C\[C@H](C)[C@H](O)[C@@H](C)[C@@H](O)[C@@H](C)[C@H](OC(C)=O)[C@@H]1C [Rifampin, reference compound] | – | 4 µg/mL (≈ 4.86 µM) | 4 µg/mL (≈ 4.86 µM) | – | – | 0.04 µg/mL | IC50 (VRE; microbroth dilution): 0.88 µg/mL (≈ 1.07 µM); MIC [3]: 0.93 µg/mL; MIC [4, 9]: 0.03 µg/mL |
| CN[C@H](CC(C)C)C(=O)N[C@H]1C(=O)N[C@@H](CC(N)=O)C(=O)N[C@H]2C(=O)N[C@H]3C(=O)N[C@H](C(=O)N[C@H](C(=O)O)c4cc(O)cc(O)c4-c4cc3ccc4O)[C@H](O)c3ccc(c(Cl)c3)Oc3cc2cc(c3O[C@@H]2O[C@H](CO)[C@@H](O)[C@H](O)[C@H]2O[C@H]2C[C@](C)(N)[C@H](O)[C@H](C)O2)Oc2ccc(cc2Cl)[C@H]1O [Vancomycin, reference compound] | – | – | – | – | – | – | IC50 (MRSA): 1.23 µg/mL (≈ 0.849 µM) |
